Source: patent publication US8198273B2, “Compounds and methods for kinase modulation, and indications therefor” (Plexxikon Inc., priority 2009, dated 2012)

Key:
[1] = system: SW620 colon adenocarcinoma cells (wild-type B-RAF); assay: SW620 cell growth inhibition (ATPlite); type: cell-based; details: Homo sapiens, SW-620, 72 h; SW620, 3 days incubation
Summary of the method: (§1)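 Cells plated overnight, then exposed 3 days at 37° C to 8-point 1:3 compound dilutions topping at 10 μM final. Viability read as ATPlite luminescence, proportional to cell number; IC50 from luminescence versus concentration.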

[2] = system: A375 melanoma cells (B-Raf V600E); assay: A375 cell growth inhibition (ATPlite); type: cell-based; details: Homo sapiens, A-375, 72 h; A375, 3 days incubation
Summary of the method: as §1

[3] = system: COLO205 colon adenocarcinoma cells (B-Raf V600E); assay: COLO205 cell growth inhibition (ATPlite); type: cell-based; details: Homo sapiens, COLO 205, 72 h; COLO205, 3 days incubation
Summary of the method: as §1

[4] = system: SKMEL2 melanoma cells (Ras mutation); assay: SKMEL2 cell growth inhibition (ATPlite); type: cell-based; details: Homo sapiens, SK-MEL-2, 72 h; SKMEL2, 3 days incubation
Summary of the method: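 SKMEL2 cells seeded at 2,000 per well overnight, then exposed to an 8-point 1:3 compound titration (top 10 μM final) for 3 days at 37 °C. ATPlite luminescence used as a measure of cell number to derive IC50.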

[5] = target: CYP2C9 (Homo sapiens, UniProt P11712); assay: CYP2C9 inhibition (fluorescent substrate); type: in vitro ADME; details: CYP2C9, MFC substrate; read-out: Cyp IC50 2C9
Summary of the method: (§2)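 Human CYP activity was followed by the fluorescence of the metabolized product of a known substrate, which falls as metabolism is inhibited. Compounds from 100 mM DMSO stocks were serially diluted 1:1 over 10 points in co-factor mix and preincubated 10 min at 37 °C. IC50 was fitted from signal versus concentration.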

[6] = target: CYP2D6 (Homo sapiens, UniProt P10635); assay: CYP2D6 inhibition (fluorescent substrate); type: in vitro ADME; details: CYP2D6, AMMC substrate; read-out: Cyp IC50 2D6
Summary of the method: as §2

Chain of CYP2D6 (P10635 whole entry): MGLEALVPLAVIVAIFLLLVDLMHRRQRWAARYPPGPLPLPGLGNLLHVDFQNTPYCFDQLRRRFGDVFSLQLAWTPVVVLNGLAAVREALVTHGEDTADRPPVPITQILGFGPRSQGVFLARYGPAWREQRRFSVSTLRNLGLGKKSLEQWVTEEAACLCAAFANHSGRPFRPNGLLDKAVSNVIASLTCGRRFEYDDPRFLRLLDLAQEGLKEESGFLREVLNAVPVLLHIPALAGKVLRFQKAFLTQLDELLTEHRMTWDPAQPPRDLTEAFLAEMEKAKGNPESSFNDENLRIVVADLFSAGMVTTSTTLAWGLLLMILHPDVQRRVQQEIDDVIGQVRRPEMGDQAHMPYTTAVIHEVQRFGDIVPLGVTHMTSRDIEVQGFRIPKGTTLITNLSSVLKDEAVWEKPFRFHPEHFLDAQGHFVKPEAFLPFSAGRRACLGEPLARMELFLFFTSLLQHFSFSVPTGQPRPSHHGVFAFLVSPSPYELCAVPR
Chain of CYP2C9 (P11712 whole entry): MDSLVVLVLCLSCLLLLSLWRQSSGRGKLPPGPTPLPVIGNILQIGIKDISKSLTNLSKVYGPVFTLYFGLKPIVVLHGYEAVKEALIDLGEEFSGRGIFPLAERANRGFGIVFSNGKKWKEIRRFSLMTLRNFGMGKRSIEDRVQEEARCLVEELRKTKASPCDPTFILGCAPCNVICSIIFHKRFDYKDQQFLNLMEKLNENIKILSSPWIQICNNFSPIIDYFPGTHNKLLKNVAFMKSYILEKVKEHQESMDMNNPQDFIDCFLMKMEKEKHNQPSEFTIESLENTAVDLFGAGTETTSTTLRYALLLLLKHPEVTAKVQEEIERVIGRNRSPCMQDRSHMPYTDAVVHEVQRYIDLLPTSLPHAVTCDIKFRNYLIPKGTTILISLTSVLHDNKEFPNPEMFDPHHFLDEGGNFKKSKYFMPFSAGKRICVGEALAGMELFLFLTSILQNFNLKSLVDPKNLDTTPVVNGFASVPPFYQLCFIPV

Row | Compound | IC50 [1] [µM] | IC50 [2] [nM] | IC50 [3] [µM] | IC50 [4] [µM] | IC50 [5] [µM] | IC50 [6] [µM]
1 | COc1ccnc2[nH]cc(C(=O)c3c(F)ccc(NS(=O)(=O)c4cc(F)ccc4F)c3F)c12 [P-2022, N-[2,4-Difluoro-3-(4-methoxy-1H-pyrrolo[2,3-b]pyridine-3-carbonyl)-phenyl]-2,5-difluoro-benzenesulfonamide] | > 10 | < 5000 | < 5 | > 10 | 5 to 10 | > 10
2 | N#Cc1cnc2[nH]cc(C(=O)c3c(F)ccc(NS(=O)(=O)c4c(F)cccc4F)c3F)c2c1 [P-2029, N-[3-(5-Cyano-1H-pyrrolo[2,3-b]pyridine-3-carbonyl)-2,4-difluoro-phenyl]-2,6-difluoro-benzenesulfonamide] | > 10 | < 5000 | < 5 | > 10 | > 10 | > 10
3 | COc1ccnc2[nH]cc(C(=O)c3c(F)ccc(NS(=O)(=O)c4c(F)cccc4F)c3F)c12 [P-2031, N-[2,4-Difluoro-3-(4-methoxy-1H-pyrrolo[2,3-b]pyridine-3-carbonyl)-phenyl]-2,6-difluoro-benzenesulfonamide] | > 10 | < 5000 | < 5 | > 10 | > 10 | > 10
4 | O=C(c1c(F)ccc(NS(=O)(=O)c2c(F)cccc2F)c1F)c1c[nH]c2nccc(Cl)c12 [P-2033, N-[3-(4-Chloro-1H-pyrrolo[2,3-b]pyridine-3-carbonyl)-2,4-difluoro-phenyl]-2,6-difluoro-benzenesulfonamide] | > 10 | < 5000 | < 10 | > 10 | > 10 | > 10
5 | N#Cc1ccnc2[nH]cc(C(=O)c3c(F)ccc(NS(=O)(=O)c4cc(F)ccc4F)c3F)c12 [P-2036, N-[3-(4-Cyano-1H-pyrrolo[2,3-b]pyridine-3-carbonyl)-2,4-difluoro-phenyl]-2,5-difluoro-benzenesulfonamide] | > 10 | < 5000 | < 1 | > 10 | > 10 | > 10
6 | N#Cc1ccnc2[nH]cc(C(=O)c3c(F)ccc(NS(=O)(=O)c4cccc(F)c4)c3F)c12 [P-2039, N-[3-(4-Cyano-1H-pyrrolo[2,3-b]pyridine-3-carbonyl)-2,4-difluoro-phenyl]-3-fluoro-benzenesulfonamide] | > 10 | < 5000 | < 5 | > 10 | > 10 | > 10
7 | N#Cc1cnc2[nH]cc(C(=O)c3cccc(NS(=O)(=O)c4cc(F)ccc4F)c3F)c2c1 [P-2052, N-[3-(5-Cyano-1H-pyrrolo[2,3-b]pyridine-3-carbonyl)-2-fluoro-phenyl]-2,5-difluoro-benzenesulfonamide] | > 10 | < 1000 | < 1 | > 10 | < 5 | > 10
8 | N#Cc1cnc2[nH]cc(C(=O)c3cccc(NS(=O)(=O)c4cccc(F)c4)c3F)c2c1 [P-2053, N-[3-(5-Cyano-1H-pyrrolo[2,3-b]pyridine-3-carbonyl)-2-fluoro-phenyl]-3-fluoro-benzenesulfonamide] | > 10 | < 5000 | < 1 | > 10 | 5 to 10 | > 10
9 | N#Cc1cnc2[nH]cc(C(=O)c3c(F)ccc(NS(=O)(=O)c4cccnc4)c3F)c2c1 [P-2072, Pyridine-3-sulfonic acid [3-(5-cyano-1H-pyrrolo[2,3-b]pyridine-3-carbonyl)-2,4-difluoro-phenyl]-amide] | > 10 | < 5000 | < 5 | > 10 | > 10 | > 10
10 | COc1ccnc2[nH]cc(C(=O)c3c(F)ccc(NS(=O)(=O)c4cccnc4)c3F)c12 [P-2073, Pyridine-3-sulfonic acid [2,4-difluoro-3-(4-methoxy-1H-pyrrolo[2,3-b]pyridine-3-carbonyl)-phenyl]-amide] | > 10 | < 10000 | < 10 | > 10 | > 10 | > 10
11 | CCCS(=O)(=O)Nc1ccc(F)c(C(=O)c2c[nH]c3ncc(-c4ccc(Cl)nc4)cc23)c1F [P-2154, Propane-1-sulfonic acid {3-[5-(6-chloro-pyridin-3-yl)-1H-pyrrolo[2,3-b]pyridine-3-carbonyl]-2,4-difluoro-phenyl}-amide] | > 10 | < 1000 | < 1 | > 10 | 5 to 10 | > 10
12 | CCCS(=O)(=O)Nc1ccc(F)c(C(=O)c2c[nH]c3ncc(-c4ccc(F)nc4)cc23)c1F [P-2155, Propane-1-sulfonic acid {2,4-difluoro-3-[5-(6-fluoro-pyridin-3-yl)-1H-pyrrolo[2,3-b]pyridine-3-carbonyl]-phenyl}-amide] | > 10 | < 1000 | < 1 | < 20 | > 10 | > 10
13 | CCCS(=O)(=O)Nc1ccc(F)c(C(=O)c2c[nH]c3ncc(-c4cncnc4)cc23)c1F [P-2162, Propane-1-sulfonic acid [2,4-difluoro-3-(5-pyrimidin-5-yl-1H-pyrrolo[2,3-b]pyridine-3-carbonyl)-phenyl]-amide] | > 10 | < 1000 | < 1 | < 10 | 5 to 10 | > 10

Other lines, results leading:

Row | IC50 [1] [µM] | IC50 [2] [nM] | IC50 [3] [µM] | IC50 [4] [µM] | IC50 [5] [µM] | IC50 [6] [µM] | Compound
14 | > 10 | < 1000 | < 1 | > 10 | > 10 | > 10 | COc1cnc2[nH]cc(C(=O)c3c(F)ccc(NS(=O)(=O)c4cc(F)ccc4F)c3F)c2c1 [P-2010, N-[2,4-Difluoro-3-(5-methoxy-1H-pyrrolo[2,3-b]pyridine-3-carbonyl)-phenyl]-2,5-difluoro-benzenesulfonamide]
15 | > 10 | < 1000 | < 1 | > 10 | > 10 | > 10 | N#Cc1cnc2[nH]cc(C(=O)c3c(F)ccc(NS(=O)(=O)c4ccccc4F)c3F)c2c1 [P-2011, N-[3-(5-Cyano-1H-pyrrolo[2,3-b]pyridine-3-carbonyl)-2,4-difluoro-phenyl]-2-fluoro-benzenesulfonamide]
16 | > 10 | < 1000 | < 5 | > 10 | > 10 | > 10 | Cc1cnc2[nH]cc(C(=O)c3c(F)ccc(NS(=O)(=O)c4ccccc4F)c3F)c2c1 [P-2014, N-[2,4-Difluoro-3-(5-methyl-1H-pyrrolo[2,3-b]pyridine-3-carbonyl)-phenyl]-2-fluoro-benzenesulfonamide]
17 | > 10 | < 1000 | < 1 | > 10 | > 10 | > 10 | Cc1cnc2[nH]cc(C(=O)c3c(F)ccc(NS(=O)(=O)c4cc(F)ccc4F)c3F)c2c1 [P-2015, N-[2,4-Difluoro-3-(5-methyl-1H-pyrrolo[2,3-b]pyridine-3-carbonyl)-phenyl]-2,5-difluoro-benzenesulfonamide]
18 | > 10 | < 1000 | < 5 | > 10 | < 5 | > 10 | Cc1cnc2[nH]cc(C(=O)c3c(F)ccc(NS(=O)(=O)c4cccc(F)c4)c3F)c2c1 [P-2016, N-[2,4-Difluoro-3-(5-methyl-1H-pyrrolo[2,3-b]pyridine-3-carbonyl)-phenyl]-3-fluoro-benzenesulfonamide]
19 | > 10 | < 1000 | < 5 | > 10 | > 10 | > 10 | O=C(c1c(F)ccc(NS(=O)(=O)c2ccccc2F)c1F)c1c[nH]c2nccc(Cl)c12 [P-2017, N-[3-(4-Chloro-1H-pyrrolo[2,3-b]pyridine-3-carbonyl)-2,4-difluoro-phenyl]-2-fluoro-benzenesulfonamide]
20 | > 10 | < 1000 | < 5 | > 10 | > 10 | > 10 | O=C(c1c(F)ccc(NS(=O)(=O)c2cc(F)ccc2F)c1F)c1c[nH]c2nccc(Cl)c12 [P-2018, N-[3-(4-Chloro-1H-pyrrolo[2,3-b]pyridine-3-carbonyl)-2,4-difluoro-phenyl]-2,5-difluoro-benzenesulfonamide]
21 | > 10 | < 5000 | < 5 | > 10 | > 10 | > 10 | O=C(c1c(F)ccc(NS(=O)(=O)c2cccc(F)c2)c1F)c1c[nH]c2nccc(Cl)c12 [P-2019, N-[3-(4-Chloro-1H-pyrrolo[2,3-b]pyridine-3-carbonyl)-2,4-difluoro-phenyl]-3-fluoro-benzenesulfonamide]
22 | < 5 | < 1000 | < 1 | > 10 | < 5 | > 10 | N#Cc1cnc2[nH]cc(C(=O)c3c(F)ccc(NS(=O)(=O)c4ccccc4)c3F)c2c1 [P-2046, N-[3-(5-Cyano-1H-pyrrolo[2,3-b]pyridine-3-carbonyl)-2,4-difluoro-phenyl]-benzenesulfonamide]
